Common to all, as to type: in vivo
For data set [1], the system named is whiteflies (Bemisia tabaci). In words: Bemisia tabaci test on cucumbers, drench application in rock wool. To be noted: 20 mg of ai/plant, days between application and infestation −11, mortality determined 18 days after infestation. Here is the method: (§1) To produce a suitable solution, the product is mixed with water and diluted with water to the desired concentration. The desired amount of additive is added to the mixtures.
Cucumbers (Cucumis sativa) are cultivated in rock wool and infested with whiteflies (Bemisia tabaci). At the 2-leaf stage, the product solution in question is applied to the rock wool. The stated concentration refers to the amount of active compound per plant.
(§2) After the desired period of time, the effect in % is determined. 100% means that all the whiteflies have been killed; 0% means that none of the whiteflies have been killed.

The subject of data set [2] is whiteflies (Bemisia tabaci). Put plainly: Bemisia tabaci test on tomatoes, drench application in rock wool. To be noted: 5 mg of ai/plant; tomato plants in rock wool; days between application and infestation −11; mortality determined 25 days after infestation. Here is the method: as §1
Tomato plants (Solanum lycopersicum) are cultivated in rock wool and infested with whiteflies (Bemisia tabaci). At the 2-leaf stage, the product solution in question is applied to the rock wool. The stated concentration refers to the amount of active compound per plant.
as §2

The subject of data set [3] is greenhouse red spider mite (Tetranychus urticae). Put plainly: Tetranychus urticae test, soil application in rock wool (eggplants). As to conditions: 10 mg of ai/plant. Here is the method:
To produce a suitable solution, the product is mixed with water and diluted with water to the desired concentration. The desired amount of additive is added to the mixtures. Eggplants (Solanum melongena) are cultivated in rock wool. At the 4-leaf stage, the product solution in question is applied to the rock wool. The stated concentration refers to the amount of active compound per plant.
At the desired point in time, the plants are infested with a mixed population of the greenhouse red spider mite (Tetranychus urticae).
After the desired period of time, the effect in % is determined. 100% means that all spider mites have been killed; 0% means that none of the spider mites have been killed.

In the case of `Cc1cc(C)c(C2=C(OC(=O)CC(C)(C)C)C3(CCCC3)OC2=O)c(C)c1` [spiromesifen (II-2), spiromesifen], the Mortality in data set [1] amounted to 0%; in data set [2], 80%; in data set [3] (days between application and infestation 14, mortality determined 14 days after infestation) it was 20%; in data set [3] (days between application and infestation −1, mortality determined 7 days after infestation) it was 30%; in data set [3] (days between application and infestation −1, mortality determined 14 days after infestation), 10%.
